The text below walks through data of paper PMC6593445, “Promiscuous terpene synthases from Prunella vulgaris highlight the importance of substrate and compartment switching in terpene synthase evolution” (The New Phytologist, 2019).

Holding throughout (test): in vitro TPS assay, GC-MS of products
Holding throughout (type): biochemical
What all share (conditions): 10 mM MgCl2, 100 mM KCl, 5 mM DTT, 50 mM HEPES pH 7.2, 30 °C, 4 h

One test concerns the target T1, PvTPS2 (Prunella vulgaris, UniProt A0A3S8D7T7).
T1 construct: N-terminal truncation removing 48 aa predicted plastid transit peptide; pET28b+, E. coli C41, Ni-NTA purified; TPS-a subfamily
T1 sequence (A0A3S8D7T7 49-597): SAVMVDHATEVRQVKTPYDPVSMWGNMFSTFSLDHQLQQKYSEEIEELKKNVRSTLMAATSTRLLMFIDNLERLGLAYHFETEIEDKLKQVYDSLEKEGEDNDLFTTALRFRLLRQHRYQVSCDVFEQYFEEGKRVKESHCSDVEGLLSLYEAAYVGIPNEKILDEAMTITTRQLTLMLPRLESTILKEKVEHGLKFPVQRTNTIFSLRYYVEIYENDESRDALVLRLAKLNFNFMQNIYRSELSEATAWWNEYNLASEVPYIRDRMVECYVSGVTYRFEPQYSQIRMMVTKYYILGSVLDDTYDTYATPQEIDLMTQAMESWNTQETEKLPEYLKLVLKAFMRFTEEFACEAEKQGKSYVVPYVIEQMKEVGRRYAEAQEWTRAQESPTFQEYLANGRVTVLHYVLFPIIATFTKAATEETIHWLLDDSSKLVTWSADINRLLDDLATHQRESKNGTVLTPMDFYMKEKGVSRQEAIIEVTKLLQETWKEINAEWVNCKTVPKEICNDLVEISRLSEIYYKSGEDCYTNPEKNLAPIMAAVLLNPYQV

In the next test the target is T2, PvTPS4 (Prunella vulgaris, UniProt A0A3S8D7W5).
T2 construct: full length, cytosolic (no transit peptide); pET28b+, E. coli C41, Ni-NTA purified; TPS-a subfamily
T2 sequence (A0A3S8D7W5 entry or part of it): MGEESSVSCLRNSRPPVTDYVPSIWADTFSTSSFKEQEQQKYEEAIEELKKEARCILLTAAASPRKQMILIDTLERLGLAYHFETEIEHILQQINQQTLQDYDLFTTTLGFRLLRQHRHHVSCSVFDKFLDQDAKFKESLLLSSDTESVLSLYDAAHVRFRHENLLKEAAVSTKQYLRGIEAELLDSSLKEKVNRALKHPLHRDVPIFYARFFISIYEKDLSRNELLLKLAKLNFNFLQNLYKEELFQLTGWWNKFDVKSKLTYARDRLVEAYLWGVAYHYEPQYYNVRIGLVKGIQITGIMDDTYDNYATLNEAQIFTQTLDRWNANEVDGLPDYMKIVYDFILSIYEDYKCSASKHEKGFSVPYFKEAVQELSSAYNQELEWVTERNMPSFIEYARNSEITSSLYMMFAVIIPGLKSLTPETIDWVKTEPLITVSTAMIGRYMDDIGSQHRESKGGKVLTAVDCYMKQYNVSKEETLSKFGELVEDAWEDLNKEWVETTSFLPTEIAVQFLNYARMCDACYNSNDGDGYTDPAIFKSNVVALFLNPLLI

Another test has as its target T3, PvTPS5 (Prunella vulgaris, UniProt A0A3S8D7W9).
T3 construct: full length, cytosolic (no transit peptide); pET28b+, E. coli C41, Ni-NTA purified; TPS-a subfamily
T3 sequence (A0A3S8D7W9 1-555): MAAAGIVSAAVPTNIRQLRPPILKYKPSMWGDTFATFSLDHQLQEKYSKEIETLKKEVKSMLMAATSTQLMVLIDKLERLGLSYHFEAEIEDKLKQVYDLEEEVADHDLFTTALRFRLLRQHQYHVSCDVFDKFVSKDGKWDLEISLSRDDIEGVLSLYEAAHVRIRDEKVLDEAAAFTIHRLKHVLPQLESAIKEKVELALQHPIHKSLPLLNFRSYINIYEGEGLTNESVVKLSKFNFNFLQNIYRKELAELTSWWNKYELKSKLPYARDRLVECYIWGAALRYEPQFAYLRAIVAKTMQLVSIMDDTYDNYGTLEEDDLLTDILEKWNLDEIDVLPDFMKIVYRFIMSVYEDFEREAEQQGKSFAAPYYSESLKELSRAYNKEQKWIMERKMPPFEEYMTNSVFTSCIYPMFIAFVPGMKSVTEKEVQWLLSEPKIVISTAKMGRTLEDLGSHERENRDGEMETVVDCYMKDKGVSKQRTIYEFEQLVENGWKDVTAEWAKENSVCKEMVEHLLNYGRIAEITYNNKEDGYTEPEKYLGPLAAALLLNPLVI

The next test addresses T4, PvHVS (Prunella vulgaris, UniProt A0A3Q8J789).
T4 construct: N-terminal truncation removing 43 aa predicted plastid transit peptide; pET28b+, E. coli C41, Ni-NTA purified; TPS-a diterpene synthase
T4 sequence (A0A3Q8J789 44-599): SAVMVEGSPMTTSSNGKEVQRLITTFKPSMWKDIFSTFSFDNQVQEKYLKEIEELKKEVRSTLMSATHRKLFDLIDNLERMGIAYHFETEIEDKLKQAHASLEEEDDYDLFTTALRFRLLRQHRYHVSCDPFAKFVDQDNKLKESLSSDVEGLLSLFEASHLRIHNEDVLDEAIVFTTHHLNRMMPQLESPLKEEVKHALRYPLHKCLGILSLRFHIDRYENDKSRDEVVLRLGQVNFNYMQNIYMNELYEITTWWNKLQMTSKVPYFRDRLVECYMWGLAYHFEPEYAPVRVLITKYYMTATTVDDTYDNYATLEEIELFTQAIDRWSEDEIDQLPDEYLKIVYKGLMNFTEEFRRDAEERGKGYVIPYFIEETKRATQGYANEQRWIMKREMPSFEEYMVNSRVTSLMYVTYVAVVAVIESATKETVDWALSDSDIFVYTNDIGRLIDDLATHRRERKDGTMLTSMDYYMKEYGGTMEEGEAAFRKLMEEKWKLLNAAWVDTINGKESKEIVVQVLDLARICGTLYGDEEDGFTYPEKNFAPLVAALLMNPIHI

In the case of `CC(C)=CCC/C(C)=C/CC/C(C)=C/COP(=O)(O)OP(=O)(O)O` [(E,E)‐FPP], the “in vitro TPS assay, GC-MS of products” value is “All four enzymes were active against (E,E)‐FPP both in vitro, and in N. benthamiana” on PvTPS2; “All four enzymes were active against (E,E)‐FPP both in vitro, and in N. benthamiana” on PvTPS4; “All four enzymes were active against (E,E)‐FPP both in vitro, and in N. benthamiana” at PvTPS5; “All four enzymes were active against (E,E)‐FPP both in vitro, and in N. benthamiana” at PvHVS.
On to `CC(C)=CCC/C(C)=C/CC/C(C)=C/CC/C(C)=C/COP(=O)(O)OP(=O)(O)O` [GGPP], for which the “in vitro TPS assay, GC-MS of products” value at PvTPS2 was “Only PvTPS2 and PvHVS were active in vitro and in N. benthamiana against GGPP”; at PvHVS, “Only PvTPS2 and PvHVS were active in vitro and in N. benthamiana against GGPP”.
Consider `CC(C)=CCC/C(C)=C\COP(=O)(O)OP(=O)(O)O` [NPP], for which the “in vitro TPS assay, GC-MS of products” value at PvTPS4 and at PvTPS5 was “all four enzymes were found to catalyse cyclisation of NPP” each time.
